# Test results from patent US20130245029A1, “TREATMENT OF CANCER WITH TOR KINASE INHIBITORS” (SIGNAL PHARMACEUTICALS, LLC, priority 2012, published 2013).
# Key:
# [1] = system: ETS overexpressing Ewing sarcoma cell lines; assay: Soft agar colony formation (clonogenic growth inhibition); assay type: cell-based; settings: 3 weeks in culture, ETS positive versus ETS negative cell lines, FIG. 1
# Protocol: FIG. 1 provides a clonogenic growth inhibition assay for Compound 1 with ETS positive and ETS negative cell lines. […] Soft Agar Colony Formation. A solid layer of 1% agarose is used to coat each well of a 96-well plate. After allowing two hours to cool, five hundred Ewing's cells are suspended in a 33% agarose (10% solution), 33% media with 2×FBS and 33% cell suspension in quadruplicate wells of a 96-well plate. Cells are treated with or without TOR kinase inhibitor in an upper layer of media. Every three days, the media is exchanged for fresh TOR kinase inhibitor containing media. After 3-weeks in culture, images are taken on a 10× objective lens and colonies are counted for each condition.
# [2] = system: Ewing's sarcoma cell lines (ETS positive cells); assay: DNA damage COMET assay; assay type: cell-based; settings: 48 hours treatment, FIG. 2
# Excerpt: DNA Damage Assays: COMET Assay.
smiles,measurement,setting,value
"CCN1C(=O)CNc2ncc(-c3ccc(-c4nc[nH]n4)nc3C)nc21 [Compound 1, 1-ethyl-7-(2-methyl-6-(1H-1,2,4-triazol-3-yl)pyridin-3-yl)-3,4-dihydropyrazino[2,3-b]pyrazin-2(1H)-one]",sensitivity of colony formation to inhibition,[1],more sensitive
same,DNA damage (COMET tail moments),[2],potentiates DNA damage
